Reference: patent publication US20060110456A1, “Method for biocidal and/or biostatic treatment and compositions therefor” (NATIONAL UNIVERSITY OF SINGAPORE, priority 2004, published 2006)
Where a name gives a salt, the structure may show the parent alone. Read-outs that look alike come from different tables or passages of the source.

Experiments:
Assay type in all cases: cell-based, marine bacteria isolated from Singapore fouling communities
[1] = system: marine bacteria (26 strains); test: Disk inhibition assay; settings: for zone of inhibition at 25 µg/disc: 25 μg per disc; for zone of inhibition at 50 µg/disc: 50 μg per disc
Method in brief: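 Tablets or capsule powders suspended in sterile water at 2 mg ml^−1 and loaded onto disks; antibiotic discs (Amp, Ery, Str, Tet) served as comparison. Disks placed on swabbed lawns on Marine Agar, incubated overnight in the dark at 30° C. Zone of clearing diameter measured by calipers; three replicates on three occasions.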

[2] = system: marine bacteria (ten strains); test: Bacteriostatic vs bacteriocidal activity from growth assay: absorbance and CFU counts; settings: 50 μg ml^−1
Procedure: Bacteria strains (1, 4, 9, 14, 18, 20, 27, 28, 29, 30) representing a variety of morphological types were used.
For each well, […] of a 100 μg ml^−1 drug solution in sterile distilled water, was added to 45 μl of Marine Broth. Controls for growth consisted of 50 μl of sterile deionized water and 45 μl of marine broth. All wells used for growth studies were prepared in triplicate and inoculated with 5 μl of the bacterial suspension. Blanks consisting of the above volumes of pharmaceutical with Marine Broth and distilled water, were prepared in triplicate and inoculated with 5 μl of sterile seawater. Immediately after adding all the components to the wells for the growth studies, 10 μl was removed and used to inoculate plates of Marine Agar to determine colony-forming units (CFU). The absorbance (A600) of each well was read in the plate reader immediately.
The inoculated plates of Marine Agar were incubated overnight on a rotary shaker (150 rpm) at 30° C. inside a moistened airtight container. After incubation, the absorbance was read again and another 10 μl was removed and used to inoculate Marine Agar plates to determine CFU.
The difference in absorbance over 24 hours for each bacterial strain versus controls and treatments were plotted in FIGS. 3 to 6 for each of the four drugs. The data was analyzed using 1-tailed t-test.

[3] = system: marine bacteria (ten strains); test: Bio-adhesion assay (crystal violet microplate); settings: hydrophobic surface (untreated polystyrene), 50 μl of 125 μg ml^−1 drug + 200 μl bacteria, 2 hours
Procedure: The effect of pharmaceuticals on bacterial adhesion was analyzed using a modified microplate method adapted from Shea and Williamson (1990). This method consists of staining the attached bacteria with crystal violet, releasing the stain with sodium desoxycholate, and measuring the resulting absorbance of the crystal violet. The absorbance is proportional to the degree of bacterial adhesion to the surface.
Ten strains of bacteria (strain numbers 1, 4, 9, 14, 18, 20, 27, 28, 29 and 30) were chosen for this study. Flat bottom non-tissue culture treated polystyrene (hydrophobic, Falcon #351172) (referred to as polystyrene) and flat bottom tissue culture treated polystyrene (hydrophilic, Falcon #353072) microplates were used in the analyses. These two types of plates were chosen because they were sterile and offered two different kinds of surfaces to determine the adhesion preferences of the bacteria. Each test was done in duplicate. For the control and blank wells, 50 μl of sterile deionized water were added. For those wells that were to contain drugs, 50 μl of drugs at concentration of 125 μg ml^−1 were added. Then 200 μl of bacteria suspension in sterile seawater, whose absorbance had been adjusted to 0.6 at 600 nm using a spectrophotometer (Beckman), were added. Blanks contained 200 μl of sterile seawater.
The bacteria in suspension were allowed to attach for 2 hours at 28° C. Unattached cells were removed by pipetting out almost all trace of liquid and rinsed three times with 300 μl of sterile seawater each time. The attached cells were stained with 200 μl of crystal violet solution (0.1% w/v) in each well for 5 min. After removing the stain by pipetting, the wells were rinsed twice with 300 μl of sterile deionized water each time. Sodium desoxycholate (200 μl) solution (2% w/v) was then added to each well to extract the crystal violet from the stained cells for 10 min. The absorbance of the extracted solution was read at 590 nm using a microplate reader (Sunrise, Tecan, Switzerland).
The data were analyzed using T-test (Two-sample assuming unequal variances) to determine the significance of the absorbance values of each bacterial strain versus the blanks to determine whether there was adhesion, i.e. increase in absorbance. Each drug effect on adhesion was analyzed by comparing the absorbance of each bacterial strain minus the control blank versus bacteria in presence of drug minus the drug control. When the data is significant, there are bacterial cells attached to the surface in the control but in the presence of drugs, there is no attachment.

CNCCC(Oc1ccc(C(F)(F)F)cc1)c1ccccc1 (stereo not drawn) [PZC, fluoxetine hydrochloride]
Activity against the three Vibrio strains tested [1]: exhibited activity against the three Vibrio strains tested | Antibiotic activity against marine bacteria [1]: strongest activity | Number of strains inhibited out of 26 strains [1]: 23 | Strains showing no inhibition (of 26) [1]: only strain 6 was not inhibited | Antibiotic activity against marine bacteria ([1]; crude rank, best (1) to worst (8)): 2 | zone of inhibition at 25 µg/disc ([1]; strain 1 (Rhodovulum)): < 5 mm | zone of inhibition at 50 µg/disc ([1]; strain 1 (Rhodovulum)): 5 to 9 mm | zone of inhibition at 25 µg/disc ([1]; strain 2 (Erythrobacter)): 10 to 19 mm | zone of inhibition at 50 µg/disc ([1]; strain 2 (Erythrobacter)): 10 to 19 mm | zone of inhibition at 25 µg/disc ([1]; strain 3 (Erythrobacter)): 10 to 19 mm | zone of inhibition at 50 µg/disc ([1]; strain 3 (Erythrobacter)): 10 to 19 mm | zone of inhibition at 25 µg/disc ([1]; strain 4 (Bacillus)): 10 to 19 mm | zone of inhibition at 50 µg/disc ([1]; strain 4 (Bacillus)): 20 to 29 mm | zone of inhibition at 25 µg/disc ([1]; strain 6 (Vibrio)): < 5 mm | zone of inhibition at 50 µg/disc ([1]; strain 6 (Vibrio)): < 5 mm | zone of inhibition at 25 µg/disc ([1]; strain 7 (Vibrio)): < 5 mm | zone of inhibition at 50 µg/disc ([1]; strain 7 (Vibrio)): 10 to 19 mm | zone of inhibition at 25 µg/disc ([1]; strain 8 (Bacillus)): 10 to 19 mm | zone of inhibition at 50 µg/disc ([1]; strain 8 (Bacillus)): 20 to 29 mm | zone of inhibition at 25 µg/disc ([1]; strain 9 (Bacillus)): 10 to 19 mm | zone of inhibition at 50 µg/disc ([1]; strain 9 (Bacillus)): 10 to 19 mm | zone of inhibition at 25 µg/disc ([1]; strain 10 (Halobacillus)): 10 to 19 mm | zone of inhibition at 50 µg/disc ([1]; strain 10 (Halobacillus)): 10 to 19 mm | zone of inhibition at 25 µg/disc ([1]; strain 11 (Pseudomonas)): 10 to 19 mm | zone of inhibition at 50 µg/disc ([1]; strain 11 (Pseudomonas)): 20 to 29 mm | zone of inhibition at 25 µg/disc ([1]; strain 12 (Gordonia)): 10 to 19 mm | zone of inhibition at 50 µg/disc ([1]; strain 12 (Gordonia)): 20 to 29 mm | zone of inhibition at 25 µg/disc ([1]; strain 13 (Bacillus)): 10 to 19 mm | zone of inhibition at 50 µg/disc ([1]; strain 13 (Bacillus)): 10 to 19 mm | zone of inhibition at 25 µg/disc ([1]; strain 14 (Vibrio)): 10 to 19 mm | zone of inhibition at 50 µg/disc ([1]; strain 14 (Vibrio)): 10 to 19 mm | zone of inhibition at 25 µg/disc ([1]; strain 16 (Pseudoalteromonas)): 5 to 9 mm | zone of inhibition at 50 µg/disc ([1]; strain 16 (Pseudoalteromonas)): 10 to 19 mm | zone of inhibition at 25 µg/disc ([1]; strain 17 (Gordonia)): 10 to 19 mm | zone of inhibition at 50 µg/disc ([1]; strain 17 (Gordonia)): 20 to 29 mm | zone of inhibition at 25 µg/disc ([1]; strain 18 (Microbacterium)): 10 to 19 mm | zone of inhibition at 50 µg/disc ([1]; strain 18 (Microbacterium)): 10 to 19 mm | zone of inhibition at 25 µg/disc ([1]; strain 19 (Erythrobacter)): 10 to 19 mm | zone of inhibition at 50 µg/disc ([1]; strain 19 (Erythrobacter)): 20 to 29 mm | zone of inhibition at 25 µg/disc ([1]; strain 20): 10 to 19 mm | zone of inhibition at 50 µg/disc ([1]; strain 20): 10 to 19 mm | zone of inhibition at 25 µg/disc ([1]; strain 21): 5 to 9 mm | zone of inhibition at 50 µg/disc ([1]; strain 21): 10 to 19 mm | zone of inhibition at 25 µg/disc ([1]; strain 22): 10 to 19 mm | zone of inhibition at 50 µg/disc ([1]; strain 22): 10 to 19 mm | zone of inhibition at 25 µg/disc ([1]; strain 24): 5 to 9 mm | zone of inhibition at 50 µg/disc ([1]; strain 24): 10 to 19 mm | zone of inhibition at 25 µg/disc ([1]; strain 26): 5 to 9 mm | zone of inhibition at 50 µg/disc ([1]; strain 26): 5 to 9 mm | zone of inhibition at 25 µg/disc ([1]; strain 27): 20 to 29 mm | zone of inhibition at 50 µg/disc ([1]; strain 27): 20 to 29 mm | zone of inhibition at 25 µg/disc ([1]; strain 28): 10 to 19 mm | zone of inhibition at 50 µg/disc ([1]; strain 28): 10 to 19 mm | zone of inhibition at 25 µg/disc ([1]; strain 29): 10 to 19 mm | zone of inhibition at 50 µg/disc ([1]; strain 29): 20 to 29 mm | zone of inhibition at 25 µg/disc ([1]; strain 30): 10 to 19 mm | zone of inhibition at 50 µg/disc ([1]; strain 30): 10 to 19 mm | Change in CFU count after 24 hours ([2]; strain 1 (Rhodovulum)): 0 | Inhibition of bacterial growth ([2]; strain 1 (Rhodovulum)): 0 | Result (bacteriostatic / bacteriocidal / no effect) ([2]; strain 1 (Rhodovulum)): no effect | Inhibition of bacterial growth ([2]; strain 4 (Bacillus)): +++ (+++ denotes little or no growth, p < 0.001) | Result (bacteriostatic / bacteriocidal / no effect) ([2]; strain 4 (Bacillus)): bacteriostatic | Inhibition of bacterial growth ([2]; strain 9 (Bacillus)): +++ (+++ denotes little or no growth, p < 0.001) | Result (bacteriostatic / bacteriocidal / no effect) ([2]; strain 9 (Bacillus)): bacteriostatic | Change in CFU count after 24 hours ([2]; strain 14 (Vibrio)): 0 | Inhibition of bacterial growth ([2]; strain 14 (Vibrio)): 0 | Result (bacteriostatic / bacteriocidal / no effect) ([2]; strain 14 (Vibrio)): no effect | Inhibition of bacterial growth ([2]; strain 18 (Microbacterium)): +++ (+++ denotes little or no growth, p < 0.001) | Result (bacteriostatic / bacteriocidal / no effect) ([2]; strain 18 (Microbacterium)): bacteriostatic | Inhibition of bacterial growth ([2]; strain 20): +++ (+++ denotes little or no growth, p < 0.001) | Result (bacteriostatic / bacteriocidal / no effect) ([2]; strain 20): bacteriostatic | Inhibition of bacterial growth ([2]; strain 27): +++ (+++ denotes little or no growth, p < 0.001) | Result (bacteriostatic / bacteriocidal / no effect) ([2]; strain 27): bacteriocidal | Inhibition of bacterial growth ([2]; strain 28): +++ (+++ denotes little or no growth, p < 0.001) | Result (bacteriostatic / bacteriocidal / no effect) ([2]; strain 28): bacteriostatic | Inhibition of bacterial growth ([2]; strain 29): +++ (+++ denotes little or no growth, p < 0.001) | Result (bacteriostatic / bacteriocidal / no effect) ([2]; strain 29): bacteriostatic | Inhibition of bacterial growth ([2]; strain 30): +++ (+++ denotes little or no growth, p < 0.001) | Result (bacteriostatic / bacteriocidal / no effect) ([2]; strain 30): bacteriostatic | Effect of drugs on adhesion of bacteria ([3]; strain 1 (Rhodovulum)): * (Significantly less adhesion observed: * p < 0.05) | Effect of drugs on adhesion of bacteria ([3]; strain 9 (Bacillus)): * (Significantly less adhesion observed: * p < 0.05)
